Experimental data from patent US7989464B2, “mGluR1 antagonists as therapeutic agents” (Schering Corporation, priority 2004, dated 2011).
pIC50: −log10 of the molar value.

The compounds below were run against T1, hmGluR1 receptor (Homo sapiens, UniProt Q13255) (assay: IC50 determination: intracellular calcium mobilization (FLIPR) upon Quisqualate stimulation in CHO cells stably expressing hmGluR1). Conditions: against Quisqualate 1 μM (EC80), FLIPR calcium mobilization, read-out: IC50 Class.
T1 construct: expressed in transfected cells
T1 sequence (Q13255 19-1194): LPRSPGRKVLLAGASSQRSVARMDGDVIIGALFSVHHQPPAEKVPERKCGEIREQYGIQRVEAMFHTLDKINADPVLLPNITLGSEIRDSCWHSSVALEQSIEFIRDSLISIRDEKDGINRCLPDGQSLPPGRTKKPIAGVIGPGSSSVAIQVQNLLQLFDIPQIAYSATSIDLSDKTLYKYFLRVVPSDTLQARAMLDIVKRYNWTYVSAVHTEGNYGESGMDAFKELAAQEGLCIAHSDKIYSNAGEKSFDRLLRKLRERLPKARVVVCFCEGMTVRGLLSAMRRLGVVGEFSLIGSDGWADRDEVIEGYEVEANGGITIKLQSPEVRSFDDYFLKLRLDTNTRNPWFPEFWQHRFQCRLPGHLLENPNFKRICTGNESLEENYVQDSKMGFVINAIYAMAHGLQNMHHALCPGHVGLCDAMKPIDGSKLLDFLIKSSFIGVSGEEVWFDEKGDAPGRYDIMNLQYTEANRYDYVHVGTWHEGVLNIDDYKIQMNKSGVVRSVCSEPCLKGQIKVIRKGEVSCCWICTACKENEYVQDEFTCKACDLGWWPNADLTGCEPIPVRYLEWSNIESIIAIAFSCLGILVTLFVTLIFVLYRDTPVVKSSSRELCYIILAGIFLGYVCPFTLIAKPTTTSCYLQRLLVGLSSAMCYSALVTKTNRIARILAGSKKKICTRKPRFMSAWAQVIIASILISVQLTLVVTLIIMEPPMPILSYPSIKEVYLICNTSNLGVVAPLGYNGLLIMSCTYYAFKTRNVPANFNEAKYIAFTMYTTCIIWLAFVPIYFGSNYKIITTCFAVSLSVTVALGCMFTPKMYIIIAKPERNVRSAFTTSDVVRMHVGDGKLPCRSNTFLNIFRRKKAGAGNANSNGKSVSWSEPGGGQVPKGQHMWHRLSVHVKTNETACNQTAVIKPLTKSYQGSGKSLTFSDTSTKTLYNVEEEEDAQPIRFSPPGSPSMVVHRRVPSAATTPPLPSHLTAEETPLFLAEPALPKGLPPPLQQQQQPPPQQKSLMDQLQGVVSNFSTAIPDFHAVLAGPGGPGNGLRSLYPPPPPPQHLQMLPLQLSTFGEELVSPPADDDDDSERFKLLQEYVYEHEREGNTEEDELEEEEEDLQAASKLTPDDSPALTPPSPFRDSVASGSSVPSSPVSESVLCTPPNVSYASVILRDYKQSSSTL
Assay type: cell-based
Method in brief: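 CHO cells stably expressing hmGluR1 were kept overnight in DMEM high glucose with GPT and 1 mM pyruvate, then loaded 2 h with Calcium 3 dye.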
With `CCOC(=O)c1cc2c(nc1C(F)(F)F)sc1c(=O)n(-c3ccc(C)cc3)cnc12` [144C] the pIC50 was under 6.00. `COc1ccnc2sc3c(=O)n(-c4ccc(C5CC5)cc4)cnc3c12` [137H] showed a pIC50 of under 6.00. Work on `COc1ccc(-n2cnc3c(sc4ncnc(Nc5ccc(Cl)cc5)c43)c2=O)cc1` [190E] yielded a pIC50 of 6.00 to 6.82. `CN(CC(O)CO)c1ccnc2sc3c(=O)n(-c4ccc(F)cc4)cnc3c12` (stereo not drawn) [28HR] showed a pIC50 of 6.00 to 6.82. With `COc1ccc(-n2cnc3c(sc4ncnc(Nc5ccccn5)c43)c2=O)cc1` [190K] the pIC50 was 6.00 to 6.82. With `CCc1ccc(-n2cnc3c(sc4nccc(OC)c43)c2=O)cc1` [25G] the pIC50 was 6.00 to 6.82. Work on `CN(C)c1cccc2sc3c(=O)n(-c4cc(F)cc(F)c4)cnc3c12` [103Q] yielded a pIC50 of 6.00 to 6.82. With `O=c1c2sc3nccc(NC4CC4)c3c2ncn1-c1ccc2c(c1)CCO2` [28CE] the pIC50 was over 7.30. For `O=c1c2sc3ncnc(Nc4ccccc4)c3c2ncn1-c1ccc2c(c1)OCO2` [95GG], the pIC50 was under 6.00. `CCNc1ccnc2sc3c(=O)n(-c4cccc(Cl)c4)cnc3c12` [28CD] showed a pIC50 of over 7.30. `COc1cccc2sc3c(=O)n(-c4ccc(Cl)cc4)cnc3c12` [103S] showed a pIC50 of 6.00 to 6.82. `CN(C)c1ncnc2sc3c(=O)n(-c4ccc5occc5c4)cnc3c12` [95AP] was tested, and the pIC50 was over 7.30. Compound `C#CCNc1ncnc2sc3c(=O)n(-c4ccc(OC)c(F)c4)cnc3c12` [95EK] has a pIC50 of 6.00 to 6.82. Work on `C=C(C)CNc1ncnc2sc3c(=O)n(-c4ccc5scnc5c4)cnc3c12` [95FC] yielded a pIC50 of over 7.30. Work on `COCCn1cnc2c(sc3ncnc(NC4CCC4)c32)c1=O` [95DW] yielded a pIC50 of under 6.00. Compound `COc1ccc(-n2cnc3c(sc4nccc(NC5CC5)c43)c2=O)cc1F` [28HE] has a pIC50 of over 7.30. With `C#CCNc1ncnc2sc3c(=O)n(-c4ccc5scnc5c4)cnc3c12` [95EL] the pIC50 was over 7.30. In the case of `C#CCNc1ncnc2sc3c(=O)n(-c4ccc(OC)cc4F)cnc3c12` [95EJ], the pIC50 was 6.82 to 7.30. `CN(CC(O)CO)c1ccnc2sc3c(=O)n(-c4ccc(Cl)cc4)cnc3c12` (stereo not drawn) [28HQ] gave a pIC50 of 6.82 to 7.30. `Cc1ccc(-n2cnc3c(sc4ncc(I)c(N)c43)c2=O)cc1` [compound 175] showed a pIC50 of over 7.30.

Same assay, conditions: against Quisqualate 1 μM (EC80), FLIPR calcium mobilization, read-out: mGluR1 IC50
`CN(C)c1ncnc2sc3c(=O)n(-c4ccc5occc5c4)cnc3c12` [95AP] was tested, and the pIC50 was 8.80. Compound `CN(C)c1ccnc2sc3c(=O)n(C4CCCCC4)cnc3c12` [7Q] has a pIC50 of 9.46. `Cc1ccc(-n2cnc3c(sc4ncc(I)c(N)c43)c2=O)cc1` [compound 175] was tested, and the pIC50 was 9.12.

Same assay, conditions: against Quisqualate 1 μM (EC80), class symbols, read-out: mGIuR 1 IC50
For `CCN(C)c1ncnc2sc3c(=O)n(-c4ccc(SC)cc4)cnc3c12` [95L], the pIC50 was over 7.30. In the case of `CC(C)c1ccc(-n2cnc3c(sc4nccc(N(C)C)c43)c2=O)cc1` [7BA], the pIC50 was 6.00 to 6.82. Work on `CCc1ccc(-n2cnc3c(sc4nccc(NC)c43)c2=O)cc1` [7CC] yielded a pIC50 of over 7.30. In the case of `COc1ccc(-n2cnc3c(sc4nc(C)cc(C)c43)c2=O)cc1` [P-15], the pIC50 was 6.00 to 6.82. `CCN(CC)C(=O)N1CCN(c2ccnc3sc4c(=O)n(C5CCCCC5)cnc4c23)CC1` [compound 64] gave a pIC50 of under 6.00. In the case of `CN(C)c1ccnc2sc3c(=O)n(-c4ccc5ncsc5c4)cnc3c12` [7AS], the pIC50 was over 7.30. Work on `CN(C)c1ccnc2sc3c(=O)n(-c4ccc(OC(F)(F)F)cc4)cnc3c12` [7Y] yielded a pIC50 of over 7.30. `O=c1c2sc3nccc(NC4CCCCC4)c3c2ncn1C1CCCCC1` [28C] was tested, and the pIC50 was under 6.00. Compound `CN(C)c1ccnc2sc3c(=O)n(-c4ccc5c(c4)OCO5)cnc3c12` [7A] has a pIC50 of over 7.30. In the case of `CN(C)c1ccnc2sc3c(=O)n(C4CCCc5ccccc54)cnc3c12` (stereo not drawn) [7AI], the pIC50 was 6.00 to 6.82. With `CN(C)c1ccnc2sc3c(=O)n(C4CCCCC4)cnc3c12` [7Q] the pIC50 was over 7.30. For `CN(C)c1cncc2sc3c(=O)n(-c4ccc(O)cc4)cnc3c12` [37H], the pIC50 was under 6.00. `CN(C)c1ccnc2sc3c(=O)n(-c4ccc5nc[nH]c5c4)cnc3c12` [7AW] showed a pIC50 of 6.82 to 7.30. Compound `CC(=O)N1CCN(c2ccnc3sc4c(=O)n(C5CCCCC5)cnc4c23)CC1` [compound 62] has a pIC50 of under 6.00. `CN(C)c1c(C=O)cnc2sc3c(=O)n(C4CCCCC4)cnc3c12` [compound 45] was tested, and the pIC50 was over 7.30. Work on `CN(C)c1ccnc2sc3c(=O)n(-c4cc[nH]n4)cnc3c12` [15W] yielded a pIC50 of under 6.00. `COc1ccc(-n2cnc3c(sc4nccc(N(C)C)c43)c2=O)c(C)c1` [7DI] gave a pIC50 of over 7.30. With `CCCc1nc2c(sc3nccc(N(C)C)c32)c(=O)n1-c1ccc(OC)cc1` [116F] the pIC50 was 6.00 to 6.82. With `COc1ccc(-n2cnc3c(sc4cncc(N(C)C)c43)c2=O)cc1` [37F] the pIC50 was 6.82 to 7.30.
